Assay results taken from US20260250318A1, “COMPOSITIONS AND METHODS FOR CROSSING THE BLOOD BRAIN BARRIER” (VOYAGER THERAPEUTICS, INC., priority 2022, published 2026).

How the values were obtained:
brain = experiment: Matured TTM-001 and TTM-002 variants, NGS enrichment in mouse brain; type: in vivo, mice; conditions: relative to AAV9 control
[1] = test system: brains, heart, liver, muscle, and DRG of the NHPs; experiment: Maturation of TTM-001 and TTM-002 capsids, NGS enrichment in NHP tissues; type: in vivo; conditions: relative to AAV9 control
Summary of the method: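 Variants carry mutations within and flanking the loop IV peptide insert: positions 450–466 were triplet-randomized, while positions 449–466 received low-frequency point mutations. The combined pool went into two NHPs, and each peptide was scored by NGS enrichment ratio against AAV9.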

[2] = NGS fold-enrichment, brain of mice
[3] = NGS fold-enrichment, mouse brain
[4] = NGS fold-enrichment of RNA, NHP brain
[5] = NGS fold-enrichment, DRG of NHPs
[6] = NGS fold-enrichment, NHP liver DNA
[7] = NGS fold-enrichment, NHP liver RNA
[8] = NGS fold-enrichment, NHP muscle
[9] = NGS fold-enrichment, RNA, brain of NHPs
[10] = NGS fold-enrichment, heart of NHPs
[11] = NGS fold-enrichment, liver DNA of NHPs
[12] = NGS fold-enrichment, liver RNA of NHPs
[13] = NGS fold-enrichment, muscle of NHPs
[14] = NGS fold-enrichment of matured AAV capsid variants, NHP brain, RNA

| Sequence | Fold Enrichment relative to AAV9, Brain (Mouse) (brain; [2]) | Fold Enrichment relative to AAV9, Brain (Mouse) (brain; [3]) | Fold Enrichment relative to AAV9, Brain (NHP) [1, 4] | Fold Enrichment relative to AAV9, DRG (NHP) [1, 5] | Fold Enrichment relative to AAV9, DRG (NHP) ([1]; NGS fold-enrichment, NHP DRG) | Fold Enrichment relative to AAV9, Heart (NHP) ([1]; NGS fold-enrichment, NHP heart) | Fold Enrichment relative to AAV9, Liver DNA (NHP) [1, 6] | Fold Enrichment relative to AAV9, Liver RNA (NHP) [1, 7] | Fold Enrichment relative to AAV9, Brain (NHP) [1, 9] | Fold Enrichment relative to AAV9, Heart (NHP) [1, 10] | Fold Enrichment relative to AAV9, Liver DNA (NHP) [1, 11] | Fold Enrichment relative to AAV9, Liver RNA (NHP) [1, 12] | Fold Enrichment relative to AAV9, Muscle (NHP) [1, 13] | Fold Enrichment relative to AAV9, Brain (Mouse) (brain; mouse brain) | Fold Enrichment relative to AAV9, Brain (NHP) [1, 14] | Fold Enrichment relative to AAV9, DRG (NHP) ([1]; NHP DRG) | Fold Enrichment relative to AAV9, Heart (NHP) ([1]; NHP heart) | Fold Enrichment relative to AAV9, Liver DNA (NHP) ([1]; NHP liver, DNA) | Fold Enrichment relative to AAV9, Liver RNA (NHP) ([1]; NHP liver, RNA) | Fold Enrichment relative to AAV9, Muscle (NHP) ([1]; NHP muscle) | further results |
| --- | --- | --- | --- | --- | --- | --- | --- | --- | --- | --- | --- | --- | --- | --- | --- | --- | --- | --- | --- | --- | --- |
| KTINGSGSPHSKAHVRQT | 165.590 fold | 165.590 fold | 119.798 fold | 0.000 fold | 0.000 fold | 0.000 fold | 1.039 fold | 0.694 fold | 119.798 fold | 0.000 fold | 1.039 fold | 0.694 fold | 0.262 fold |  |  |  |  |  |  |  | Fold Enrichment relative to AAV9, Muscle (NHP) [1, 8]: 0.262 fold |
| KTINGSGSPHSKAIGKQT |  |  |  |  |  |  |  |  |  |  |  |  |  | 110.132 fold | 56.158 fold | 0.000 fold | 0.000 fold | 0.088 fold | 0.887 fold | 0.000 fold |  |
| KTINGSGSPHSKALHQHT | 68.196 fold | 68.196 fold | 77.502 fold | 0.000 fold | 0.000 fold | 0.052 fold | 0.188 fold | 0.000 fold | 77.502 fold | 0.052 fold | 0.188 fold | 0.000 fold | 0.041 fold |  |  |  |  |  |  |  | Fold Enrichment relative to AAV9, Muscle (NHP) [1, 8]: 0.041 fold |
| KTINGSGSPHSKALMRQT |  |  |  |  |  |  |  |  |  |  |  |  |  | 81.332 fold | 57.234 fold | 0.060 fold | 0.036 fold | 0.517 fold | 1.798 fold | 0.100 fold |  |
| KTINGSGSPHSKALNRQS | 55.945 fold | 55.945 fold | 96.843 fold | 0.136 fold | 0.136 fold | 0.532 fold | 0.178 fold | 0.042 fold | 96.843 fold | 0.532 fold | 0.178 fold | 0.042 fold | 0.000 fold |  |  |  |  |  |  |  | Fold Enrichment relative to AAV9, Muscle (NHP) [1, 8]: 0.000 fold |
| KTINGSGSPHSKAPGLQT | 144.610 fold |  |  | 0.007 fold |  |  |  |  | 62.043 fold | 0.000 fold | 0.210 fold | 0.651 fold | 0.005 fold |  |  |  |  |  |  |  |  |
| KTINGSGSPHSKAPGQQT |  |  |  |  |  |  |  |  |  |  |  |  |  | 73.440 fold | 54.071 fold | 0.065 fold | 0.000 fold | 0.179 fold | 0.542 fold | 0.004 fold |  |
| KTINGSGSPHSKAPNLQI |  |  |  |  |  |  |  |  |  |  |  |  |  | 55.714 fold | 58.022 fold | 0.000 fold | 0.044 fold | 0.243 fold | 1.548 fold | 0.000 fold |  |
| KTINGSGSPHSKAPSLQT |  |  |  |  |  |  |  |  |  |  |  |  |  | 70.363 fold | 52.137 fold | 0.041 fold | 1.614 fold | 0.222 fold | 0.902 fold | 0.002 fold |  |
| KTINGSGSPHSKAPSMQT |  |  |  |  |  |  |  |  |  |  |  |  |  | 75.504 fold | 50.249 fold | 0.000 fold | 0.000 fold | 0.460 fold | 0.941 fold | 0.004 fold |  |
